Assay results taken from patent publication US6943191B1, “Disubstituted lavendustin A analogs and pharmaceutical composition comprising the analogs” (The United States of America as represented by the …, priority 1998, dated 2005).
Read-outs that look alike come from different tables or passages of the source.

Legend:
[1] = system: K562 cells; test: K562 cell culture and growth assay, 6 day MTT; assay type: cell-based, human; settings: K562, 6 days
Procedure: This example describes the procedure used for cell culture and growth assays. Human leukemia, Philadelphia-chromosome-positive CML cell line K562 was obtained from ATCC (Rockville, Md.). Cells were cultured in RPMI medium containing 10% fetal calf serum, 2 mM glutamine, 100 units/ml of penicillin and 100 μg/ml streptomycin Cells (2×10^3 cells/well) were incubated with increasing concentrations of compounds of the present invention dissolved in DMSO in a final volume of 200 μl in 96-well plates. Control cells were incubated with medium containing identical concentrations of the DMSO solvent. Growth of K562 cells was quantitated after 6 days by ability of living cells to reduce the yellow dye 3-(4,5-dimethylthiazolyl)-2,5-diphenyltetrazolium bromide (MTT) to a blue formazan product. Further information concerning this procedure is provided by Mossman T., “Rapid Colorimetric Assay for Cellular Growth and Survival—Application to Proliferation and Cytotoxicity Assays,” J. Immunol. Methods 1983, 65:55-63, which is incorporated herein by reference.

[2] = system: panel of approximately 60 different human tumor cell lines; test: National Cancer Institute drug screen, mean-graph parameters; assay type: cell-based; settings: mean over cell line panel, two days exposure; for GI50: Homo sapiens, 48 h, read-out: Tumor cell Mean log GI50 (converted)
Procedure: Compounds of the present invention also have been subjected to the drug screening procedure employed by the National Cancer Institute for the screening of drugs having possible anticancer utility. The screening procedure uses a diverse, disease-oriented panel consisting of approximately 60 different human tumor cell lines organized into disease-specific subpanels. The compounds of the present invention were tested over a range of concentrations for cytotoxic or growth-inhibitory effects against cell lines comprising the panel. The eight subpanels represented diverse histologies (leukemias, melanomas, and tumors of the lung, colon, kidney, breast, ovary, and brain).
Compounds of the present invention were tested over a period of two days. During this period the cells were continuously exposed to various concentrations of the compounds tested. The tests produced individual dose-responses, one for each cell line (i.e. one for each example), and the data were represented in dose-response curves. The data provided by these dose response curves were summarized using a mean-graph format.
To produce data for the mean-graph format, a compound concentration that produced a target level response was calculated for each cell line. Three different response parameters were evaluated. The first response parameter was the growth inhibition (“GI50”). GI50 is the concentration of compounds made according to the present invention that produced an apparent 50% decrease in the number of tumor cells relative to the appropriate control (not exposed to the compounds of the present invention) at the end of the incubation period.
The second response parameter was the total growth inhibition (“TGI”). TGI is the concentration at which the number of tumor cells remaining at the end of the incubation period substantially equal the number of tumor cells existing at the start of the incubation period.
The third response parameter was the lethal concentration (“LC50”) LC50 is the concentration of compounds made according to the present invention that caused an apparent 50 percent reduction in the number of tumor cells […] at the start of the incubation period.
In a typical GI50 mean graph, the relative position of the vertical reference line along the horizontal concentration axis was obtained by averaging the negative log10GI50 values for all the cell lines tested against the compound. Horizontal bars were then plotted for the individual negative log10GI50 values of each cell line relative to the vertical reference line. The GI50 graph thus provided a characteristic fingerprint for the compound, displaying the individual cell lines that are proportionately more sensitive than average (bars extending to the right of the reference line) or proportionately less sensitive than average (bars extending to the left of the reference line). The length of a bar was proportional to the difference between the log10GI50 value obtained with the particular cell line and the mean (represented by the vertical reference line).
Similar mean graphs were prepared for the TGI and LC50 response parameters.

[3] = molecular target: T1, p210^bcr-abl (Homo sapiens, UniProt P00519); test: Inhibition of in vitro auto-phosphorylation of p210^bcr-abl, immune-complex kinase assay; assay type: biochemical; settings: Table 4
T1 construct: immune complexes containing ^32P-labeled p210^bcr-abl were collected on protein Sepharose beads; BCR (N-terminal part of the breakpoint cluster region protein, natural fusion partner); endogenous in cells; host or cells: K562 cells (lysate, immunoprecipitated on Protein A-Sepharose); the other entry of the earlier key: BCR (P11274, Breakpoint cluster region protein)
T1 sequence (P00519 with tags, fused parts or gaps): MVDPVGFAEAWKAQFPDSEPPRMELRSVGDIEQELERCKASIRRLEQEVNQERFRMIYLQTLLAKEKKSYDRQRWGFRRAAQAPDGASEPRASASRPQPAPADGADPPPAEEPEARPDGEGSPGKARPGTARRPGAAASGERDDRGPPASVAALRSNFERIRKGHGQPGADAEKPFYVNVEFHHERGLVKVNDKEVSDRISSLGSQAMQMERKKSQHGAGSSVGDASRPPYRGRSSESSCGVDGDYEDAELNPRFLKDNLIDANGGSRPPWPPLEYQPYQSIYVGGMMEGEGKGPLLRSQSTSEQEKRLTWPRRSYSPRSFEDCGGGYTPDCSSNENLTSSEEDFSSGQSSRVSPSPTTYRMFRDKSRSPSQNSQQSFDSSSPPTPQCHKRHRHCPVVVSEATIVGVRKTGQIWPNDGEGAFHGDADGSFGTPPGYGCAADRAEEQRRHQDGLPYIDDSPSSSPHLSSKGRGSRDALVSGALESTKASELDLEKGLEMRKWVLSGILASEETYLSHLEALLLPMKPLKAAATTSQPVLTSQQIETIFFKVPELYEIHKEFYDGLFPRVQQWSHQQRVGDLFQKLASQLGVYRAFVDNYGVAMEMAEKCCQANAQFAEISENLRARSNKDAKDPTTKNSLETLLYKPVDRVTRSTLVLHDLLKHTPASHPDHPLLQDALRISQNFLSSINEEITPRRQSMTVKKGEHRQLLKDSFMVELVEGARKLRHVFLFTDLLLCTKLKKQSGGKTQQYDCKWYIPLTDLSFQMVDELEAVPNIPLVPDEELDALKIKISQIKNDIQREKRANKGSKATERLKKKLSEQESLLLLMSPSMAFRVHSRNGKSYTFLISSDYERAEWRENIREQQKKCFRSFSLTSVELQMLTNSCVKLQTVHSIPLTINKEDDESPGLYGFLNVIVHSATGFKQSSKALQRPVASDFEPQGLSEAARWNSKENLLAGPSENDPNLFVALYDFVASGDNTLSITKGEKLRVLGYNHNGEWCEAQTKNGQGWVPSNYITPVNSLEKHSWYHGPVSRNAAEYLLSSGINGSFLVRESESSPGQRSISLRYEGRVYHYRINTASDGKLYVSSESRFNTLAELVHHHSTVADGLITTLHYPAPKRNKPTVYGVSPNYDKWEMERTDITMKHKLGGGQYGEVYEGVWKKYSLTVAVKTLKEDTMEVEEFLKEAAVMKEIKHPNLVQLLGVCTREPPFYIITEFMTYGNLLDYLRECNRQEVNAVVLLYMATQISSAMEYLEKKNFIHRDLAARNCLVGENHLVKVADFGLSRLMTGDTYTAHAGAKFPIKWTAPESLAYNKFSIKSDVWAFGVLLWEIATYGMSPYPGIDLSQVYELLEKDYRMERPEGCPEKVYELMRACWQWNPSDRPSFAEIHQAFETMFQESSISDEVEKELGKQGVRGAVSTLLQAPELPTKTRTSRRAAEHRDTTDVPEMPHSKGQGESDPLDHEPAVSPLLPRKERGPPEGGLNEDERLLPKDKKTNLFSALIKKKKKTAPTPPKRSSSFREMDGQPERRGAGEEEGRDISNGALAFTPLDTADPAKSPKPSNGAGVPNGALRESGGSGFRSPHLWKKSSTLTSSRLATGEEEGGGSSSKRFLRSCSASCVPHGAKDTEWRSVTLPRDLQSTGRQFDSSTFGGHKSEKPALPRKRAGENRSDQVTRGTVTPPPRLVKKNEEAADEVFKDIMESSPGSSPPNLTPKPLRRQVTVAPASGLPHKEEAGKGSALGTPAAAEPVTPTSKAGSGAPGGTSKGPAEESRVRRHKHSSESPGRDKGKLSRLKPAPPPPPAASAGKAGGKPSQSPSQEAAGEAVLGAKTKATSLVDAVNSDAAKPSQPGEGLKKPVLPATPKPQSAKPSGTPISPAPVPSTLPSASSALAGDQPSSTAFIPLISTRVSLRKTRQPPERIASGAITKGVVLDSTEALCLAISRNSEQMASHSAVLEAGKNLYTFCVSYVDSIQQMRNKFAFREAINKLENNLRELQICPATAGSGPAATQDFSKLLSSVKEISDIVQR
Procedure: Inhibition of in vitro auto-phosphorylation of p210^bcr-abl in immune-complex kinase assays were conducted as follows. K562 cell line cells were washed twice in […]. The washed cells were lysed in PLC lysis buffer 150 mM HEPES (pH 7.5), 150 mM NaCl, 10% (v/v) glycerol, 1% (v/v) Triton X-100, 1.5 mM MgCl2, 1 mM EGTA. 10 μg/ml leupeptin, 10 μg/ml aprotinin, 1 mM sodium orthovanadate. 10 mM sodium pyrophosphate, 100 mM sodium fluoride and 1 mM phenylmethyl sulfonyl fluoride| Cell lysates were centrifuged at 100,000 g for 15 minutes and the supernatant collected. Protein concentrations of the clarified supernatants were determined by the Bradford Protein Assay, and the same quantity of protein was immunoprecipitated from control (vehicle-treated) and drug-treated cells. Cell lysates were incubated and gently rocked at 4° C. for 4 hours overnight with antibodies. Immune complexes were collected by incubation with Protein A-Sepharose beads (Pharmacia, Piscataway N.J.) and immune complexes (beads) were washed three times with HNTG buffer [20 mM HEPES (pH 7.5), 10% glycerol, 0.1% Triton X-100, 150 mM NaCl and 1 mM sodium orthovanadate] to remove unbound material. Bound proteins were boiled for 5 minutes in 2×SDS sample buffer (63 mM Tris-HCl, ph 6.8; 10% glycerol; 2% SDS; 0.0025% bromophenol blue: and […] 2 mercaptoethanol) prior to SDS-PAGE. Proteins were resolved on 4-20% gradient mini gels from Novex Experimental Technology (San Diego, Calif.).
After SDS-PAGE, proteins were electrophoretically transferred onto Immobilon polyvinylidene difluoride (PVDF) membranes (Millipore, Bedford, Mass.) at 250 mA for 4 hours at 4° C. using 2× Tris glycine transfer buffer (50 mM Tris, glycine), 20% methanol and 0.1% SDS. Residual binding sites on the membrane were blocked by incubation in TTS (20 mM Tris pH 7.4, 0.9% NaCl and 0.05% Tween 20) containing 3% BSA overnight at 4° C. or for 4 hours at room temperature. Blots were incubated for 1-1.5 hours with TTS containing 0.3% BSA with 1 μg/ml of mouse anti-P-Tyr, 2 μg/ml of mouse anti-Grb2 or 1 μg/ml of rabbit anti-She antibody. Blots were washed three times for 6 minutes each with TTS containing 0.3% BSA and probed with a 1:1000 dilution of rabbit anti-mouse antibody or directly with [^125I]Protein A (Amersham, Arlington Heights, Ill.) in blocking solutions. Proteins were visualized by autoradiography (exposed for 1-2 days at −70° C.).
The p210^bcr-abl, protein immunoprecipitates were washed twice with HTNG buffer Immunoprecipitates were washed once with 50 mM Tris (pH 7.0) and distributed to each reaction in 20 μl of 20 mM PIPES [piperazine-N,N′-bis(ethanesulfonic acid)] (pH 7.0)−20 mM MnCl2. Then, 10 μl of compounds made according to the present invention at desired concentrations from working stock solution prepared in 20 mM PIPEs (pH 7.0)−20 mM MnCl2 were added to each reaction tube. Reactions were initiated with the addition of 10 μl of [γ-^33P]ATP (10 μCi per sample, 3000 Ci/mmol; Amersham), incubated for 20 minutes at 30° C., stopped by addition of 10 μl of 5×SDS sample buffer, heated at 100° C. for 5 minutes, and analyzed on 4-20% SDS-PAGE and by autoradiography.
To assess the effect of drugs added in vitro on the state of p210^bcr-abl in the immune complexes, K562 cells were labeled with ^32P, lysed in PLC buffer and immune complexes containing ^32P-labeled p210^bcr-abl were collected on protein Sepharose beads and beads were washed four times with HNTG buffer. Immune complexes were divided into several tubes in 30 μl of PLC buffer in the presence of compounds made as described herein.

[4] = system: minimum of 12 human cancer cell lines; test: Hollow fiber assay in mice, point score; assay type: in vivo; settings: for Hollow Fiber Assay IP score: first number of cell; for Hollow Fiber Assay SC score: second number of cell
Procedure: Compounds satisfying Formulas 1 and 2 also have been tested for in vivo activity in the hollow fiber assay. See Example 12 below for the procedure used for the in vivo tests. Each compound tested was tested against a minimum of 12 human cancer cell lines. Data is reported as % T/C (i.e., the […]) for each of the 2 compound doses against each of the cell lines with separate values calculated for the intraperitoneal and subcutaneous samples, with a target value for % T/C being about 50 or less.
Compounds were selected for further in vivo testing in standard subcutaneous xenograft models on the basis of several hollow fiber assay criteria. These criteria include: (1) a % T/C of 50 or less in 10 of the 48 possible test combinations (12 cell lines×2 sites×2 compound doses); (2) activity at a distance (intrapentoneal drug/subcutaneous culture) in a minimum of 4 of the 24 possible combinations; and/or (3) a net cell kill of 1 or more cell lines in either implant site. To simplify evaluation, a point system has been adopted which allows rapid assessment of a compound's activity. A value of 2 is assigned for each compound dose which results in a 50% or greater reduction in viable cell mass. The intraperitoneal and subcutaneous samples were scored separately so that criteria (1) and (2) could be evaluated. Compounds with a combined IP+SC score≧20, an SC score≧8, or a net cell kill of one or more cell lines were referred for xenograft testing. These criteria have been statistically validated by comparing the activity outcomes of greater than 80 randomly selected compounds in the hollow fiber assay and in the xenograft testing.
This example describes the method used for in vivo testing of mice. Human cancer cells were cultivated in polyvinylidene fluoride (PVDF) hollow fibers. A sample of each cancer cell line was implanted intraperitoneally and subcutaneously in mice. Each mouse received a total of 6 fibers, 3 intraperitoneally and 3 subcutaneously, representing 3 distinct cancer cell lines. Three mice were treated with compounds made according to the present invention at each of two test doses intraperitoneally using a QD×4 treatment schedule. Vehicle controls consisted of 6 mice receiving the compound diluent only The fiber cultures were collected on the day following the last treatment. Anticancer effects were assessed by determining viable cell mass for each of the coil line using a formazan dye (MTT) conversion assay. From this, the % TIC was calculated using the average optical density of the compound-treated samples divided by the average optical density of the vehicle controls. In addition, the net increase in cell mass was determined for each sample as samples of fiber cultures were assessed for viable cell mass on the day of implantation into mice. This allowed cytostatic and cytocidal capacities of these compounds to be assessed.

[5] = Homo sapiens, 144 h, Table 4, read-out: IC50 (6d MTT)
[6] = Homo sapiens, 144 h, Table 9, mean ± S.E., 4 or more experiments, read-out: IC50 (μM) 6dMTT

COc1ccc(OC)c(CNc2ccc(C(=O)O)cc2)c1 [COOH / H / CH3]
IC50 ([1]; Table 8, mean+S.E., 4 or more experiments, read-out: IC50 (μM) 6 dMTT): 100 µM | Tumor Cell Mean log GI50 ([2]; Table 8): −4.0 | Tumor Cell Mean log TGI ([2]; Table 8): −4.0

COC(=O)c1ccc(NCc2cc(OC)ccc2OC)cc1 [COOCH3 / H / CH3]
IC50 ([1]; Homo sapiens, 144 h, Table 8, mean+S.E., 4 or more experiments, read-out: IC50 (μM) 6 dMTT): 41.3 µM | Tumor Cell Mean log GI50 ([2]; Table 8): −4.40 | Tumor Cell Mean log TGI ([2]; Table 8): −4.04

COC(=O)c1ccc(/C=C/C2=CC(=O)C=CC2=O)cc1 [Compound 33]
IC50 [1, 5]: 7.5 µM | IC50 (p210^ber-abi in vitro phosphorylation) [3]: No Effect

CC(C)(C)OC(=O)c1ccc(NCc2cc(O)ccc2O)cc1 [Compound 14]
IC50 [1, 5]: 7 µM | IC50 ([3]; read-out: IC50 (p210^ber-abi in vitro phosphorylation)): 10 µM

CC(C)OC(=O)c1ccc(CCC2=CC(=O)C(Br)=CC2=O)cc1 [Compound 32]
IC50 [1, 5]: 10 µM | IC50 (p210^ber-abi in vitro phosphorylation) [3]: No Effect

O=C1C=CC(=O)C(CNc2ccc(C(=O)OC34CC5CC(CC(C5)C3)C4)cc2)=C1 [Compound 22, 4′-adamantylbenzoate-1′-N-p-quinone-2-methyl amine]
IC50 [1, 6]: 32 ± 0.5 µM | GI50 ([2]; Table 9): 4.79 µM | Tumor Cell Mean log TGI ([2]; Table 9): −4.72

COC(=O)c1ccc(NCC2=CC(=O)c3ccccc3C2=O)cc1 [Compound 19, 4′-methylbenzoate-1′-N-1,4-methylnaphthoquinone amine]
IC50 [1, 6]: 9.11 ± 1 µM | GI50 ([2]; Table 9): 13.8 µM | Tumor Cell Mean log TGI ([2]; Table 9): −4.41

COC(=O)c1ccc(NCc2cc(O)c3ccccc3c2O)cc1 [Compound 18]
IC50 [1, 6]: 6.83 ± 1.68 µM | GI50 ([2]; Table 9): 8.91 µM | Tumor Cell Mean log TGI ([2]; Table 9): −4.62 | Hollow Fiber Assay IP score ([4]; Table 9, intraperitoneal fibers): 4 | Hollow Fiber Assay SC score ([4]; Table 9, subcutaneous fibers): 0 | Hollow Fiber Assay Total Ip and SC Score ([4]; Table 9): 0

COC(=O)c1ccc(CCC2=CC(=O)C=CC2=O)cc1 [COOCH3 / 2,5-quinoyl / CH2—CH2 / H]
IC50 ([1]; Table 10, mean ± S.E., 4 or more experiments, read-out: IC50 (μM) 6dMTT): 5.65 ± 0.8 µM | Tumor Cell Mean log GI50 ([2]; Table 10): −5.00 | Tumor Cell Mean log TGI ([2]; Table 10): −4.65 | Hollow Fiber Assay IP score ([4]; Table 10): 6 | Hollow Fiber Assay SC score ([4]; Table 10): 4 | Hollow Fiber Assay Total Ip and SC Score ([4]; Table 10): 10

O=C(O)c1ccc(/C=C/c2cc(O)ccc2O)cc1O [COOH / 2,5-dihydroxyphenyl / CH═CH / OH]
Tumor Cell Mean log GI50 ([2]; Table 10): >−5.03 | Tumor Cell Mean log TGI ([2]; Table 10): >−5.0
